Active and inactive are the calls of the source.
Experiments:
[1] = inhibitors of firefly luciferase expression or activity, dose response, H4 neuroglioma cells, luminescence (AID 1990); assay type: functional, cell-based
[2] = inhibitors of SNCA 5'UTR-driven reporter translation, confirmation, H4 neuroglioma cells, luminescence (AID 1988); assay type: functional, cell-based
[3] = Luminescence Cell-Based Dose Response HTS to Identify Inhibitors of 5'UTR Stem-Loop Driven Prion Protein mRNA Translation in H4 Neuroglioblastoma Cells. [Related pubchem assays: 1827 (Project Summary), 1813 (Primary HTS)]; assay type: functional
[4] = target: FAD-linked sulfhydryl oxidase ALR (Homo sapiens, UniProt P55789); assay: inhibitors of human ALR sulfhydryl oxidase, dose response, biochemical, H2O2 detection, luminescence, cherry-pick (AID 493248)
Sequence of FAD-linked sulfhydryl oxidase ALR (P55789 whole entry): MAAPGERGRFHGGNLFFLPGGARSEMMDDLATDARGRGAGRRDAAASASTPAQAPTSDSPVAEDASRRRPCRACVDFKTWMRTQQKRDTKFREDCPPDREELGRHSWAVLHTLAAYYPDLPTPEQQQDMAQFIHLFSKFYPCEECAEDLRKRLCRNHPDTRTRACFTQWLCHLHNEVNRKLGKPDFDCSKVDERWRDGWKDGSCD

[5] = target: T1, Rac GTPase-activating protein 1 (Homo sapiens, UniProt Q9H0H5); assay: MgcRacGAP GTPase-activating activity inhibitors, confirmation, biochemical, ADP Hunter fluorescence, primary and confirmatory (AID 624330); assay type: functional
T1 sequence (Q9H0H5 whole entry): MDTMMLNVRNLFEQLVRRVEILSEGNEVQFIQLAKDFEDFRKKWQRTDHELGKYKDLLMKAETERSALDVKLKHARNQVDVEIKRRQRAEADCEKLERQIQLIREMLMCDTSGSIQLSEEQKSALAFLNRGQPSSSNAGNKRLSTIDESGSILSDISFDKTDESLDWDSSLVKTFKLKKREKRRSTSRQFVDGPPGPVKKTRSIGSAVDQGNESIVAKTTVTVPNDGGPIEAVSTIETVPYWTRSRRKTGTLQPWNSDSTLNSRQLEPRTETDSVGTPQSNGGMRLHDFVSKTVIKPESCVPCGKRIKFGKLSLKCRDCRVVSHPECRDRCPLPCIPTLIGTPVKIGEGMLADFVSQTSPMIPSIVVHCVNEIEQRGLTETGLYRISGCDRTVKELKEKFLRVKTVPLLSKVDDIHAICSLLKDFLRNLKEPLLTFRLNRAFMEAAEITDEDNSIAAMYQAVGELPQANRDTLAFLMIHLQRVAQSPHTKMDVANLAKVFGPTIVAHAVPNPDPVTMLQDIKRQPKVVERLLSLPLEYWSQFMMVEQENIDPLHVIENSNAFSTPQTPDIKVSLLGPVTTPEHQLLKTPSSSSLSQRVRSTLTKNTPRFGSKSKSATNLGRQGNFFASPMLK

[6] = target: Large T antigen (Simian virus 40, UniProt P03070); assay type: functional, Betapolyomavirus macacae;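 also: Confirmatory-stage PubChem screen for compounds that inhibit SV40 T antigen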
Sequence of Large T antigen (P03070 whole entry): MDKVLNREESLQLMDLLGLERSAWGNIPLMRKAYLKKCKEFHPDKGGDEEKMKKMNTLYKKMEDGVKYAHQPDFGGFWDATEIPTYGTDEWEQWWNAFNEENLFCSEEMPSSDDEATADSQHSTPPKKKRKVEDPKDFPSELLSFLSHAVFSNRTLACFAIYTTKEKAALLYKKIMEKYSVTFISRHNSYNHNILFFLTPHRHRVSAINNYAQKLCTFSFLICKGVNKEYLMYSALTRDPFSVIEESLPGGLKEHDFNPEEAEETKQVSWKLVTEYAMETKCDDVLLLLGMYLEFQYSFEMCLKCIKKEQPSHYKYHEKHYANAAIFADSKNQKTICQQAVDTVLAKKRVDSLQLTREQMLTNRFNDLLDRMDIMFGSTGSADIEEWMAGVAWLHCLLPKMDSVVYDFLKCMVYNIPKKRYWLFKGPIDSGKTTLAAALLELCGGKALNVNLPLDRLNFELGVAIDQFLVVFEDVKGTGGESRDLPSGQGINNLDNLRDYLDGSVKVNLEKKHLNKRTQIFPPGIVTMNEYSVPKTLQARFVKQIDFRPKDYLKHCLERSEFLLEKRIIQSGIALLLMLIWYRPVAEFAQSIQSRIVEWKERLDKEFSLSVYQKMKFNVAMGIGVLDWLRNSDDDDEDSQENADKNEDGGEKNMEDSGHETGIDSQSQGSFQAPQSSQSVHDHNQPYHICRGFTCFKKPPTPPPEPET

[7] = inhibitors of intracellular T. cruzi replication, confirmation, NIH3T3 host cells, beta-gal luminescence (AID 2044); assay type: functional, cell-based;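 also: intracellular parasites grown in NIH/3T3 mouse fibroblasts as host cells; luminescent beta-galactosidase reporter signal from transgenic T. cruzi replicating inside host cells; inhibitors lower the luminescence signal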
[8] = cytotoxicity toward NIH3T3 fibroblasts, dose response, counter-screen, cell-based, ATP luminescence, mouse fibroblasts (AID 2010); assay type: functional;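 also: cells exposed to compound for about 90 hours before reading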
[9] = target: Cytochrome P450 3A4 (Homo sapiens, UniProt P08684);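 also: CYP3A4 tested as one member of a cytochrome P450 panel screen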
Sequence of Cytochrome P450 3A4 (P08684 whole entry): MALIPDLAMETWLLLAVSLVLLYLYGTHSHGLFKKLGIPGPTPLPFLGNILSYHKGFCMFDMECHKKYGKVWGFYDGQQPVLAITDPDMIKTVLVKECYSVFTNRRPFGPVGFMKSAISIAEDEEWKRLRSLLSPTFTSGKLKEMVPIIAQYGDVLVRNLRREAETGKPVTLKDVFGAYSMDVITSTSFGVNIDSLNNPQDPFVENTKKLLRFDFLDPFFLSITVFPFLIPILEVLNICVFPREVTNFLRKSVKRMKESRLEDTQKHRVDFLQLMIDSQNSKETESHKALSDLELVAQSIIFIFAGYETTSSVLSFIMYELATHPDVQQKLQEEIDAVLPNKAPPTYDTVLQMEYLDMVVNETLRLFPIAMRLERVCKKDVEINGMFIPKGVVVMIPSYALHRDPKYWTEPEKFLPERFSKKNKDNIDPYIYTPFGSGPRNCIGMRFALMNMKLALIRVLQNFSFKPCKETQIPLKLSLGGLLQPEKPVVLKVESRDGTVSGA

[10] = target: Cytochrome P450 2D6 (Homo sapiens, UniProt P10635);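 also: CYP2D6 member of a cytochrome P450 panel assay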
Sequence of Cytochrome P450 2D6 (P10635 whole entry): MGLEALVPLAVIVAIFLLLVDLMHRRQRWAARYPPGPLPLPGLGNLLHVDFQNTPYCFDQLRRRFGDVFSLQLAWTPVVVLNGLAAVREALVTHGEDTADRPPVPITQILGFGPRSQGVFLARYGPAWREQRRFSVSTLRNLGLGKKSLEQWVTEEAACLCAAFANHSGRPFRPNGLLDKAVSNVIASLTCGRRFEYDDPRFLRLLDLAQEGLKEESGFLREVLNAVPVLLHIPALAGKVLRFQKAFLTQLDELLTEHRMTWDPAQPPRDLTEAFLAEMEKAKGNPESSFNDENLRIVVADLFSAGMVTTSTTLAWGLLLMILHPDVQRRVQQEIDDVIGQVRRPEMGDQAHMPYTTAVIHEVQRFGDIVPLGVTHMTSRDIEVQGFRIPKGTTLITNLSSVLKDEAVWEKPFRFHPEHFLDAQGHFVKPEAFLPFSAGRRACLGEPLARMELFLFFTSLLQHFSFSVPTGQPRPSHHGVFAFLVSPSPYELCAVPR

[11] = target: T2, Cytochrome P450 1A2 (Homo sapiens, UniProt P05177);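 also: PubChem cytochrome P450 panel assay, CYP1A2 panel member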
T2 sequence (P05177 whole entry): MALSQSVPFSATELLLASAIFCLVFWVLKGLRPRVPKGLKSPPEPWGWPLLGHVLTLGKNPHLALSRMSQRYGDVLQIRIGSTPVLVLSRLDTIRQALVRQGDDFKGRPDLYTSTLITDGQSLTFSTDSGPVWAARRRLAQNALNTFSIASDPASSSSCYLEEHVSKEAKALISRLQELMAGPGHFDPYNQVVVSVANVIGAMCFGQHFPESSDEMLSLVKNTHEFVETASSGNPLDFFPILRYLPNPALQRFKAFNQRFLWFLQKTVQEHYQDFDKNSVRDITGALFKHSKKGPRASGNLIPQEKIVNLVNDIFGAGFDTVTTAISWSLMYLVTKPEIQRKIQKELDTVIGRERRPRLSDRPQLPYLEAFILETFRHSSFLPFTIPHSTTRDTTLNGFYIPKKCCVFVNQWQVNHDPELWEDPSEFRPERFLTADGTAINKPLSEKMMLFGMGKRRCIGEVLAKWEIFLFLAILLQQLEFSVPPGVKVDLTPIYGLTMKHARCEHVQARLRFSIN

[12] = target: Cytochrome P450 2C19 (Homo sapiens, UniProt P33261); assay: Cytochrome panel assay with activity outcomes. Panel member name: p450-cyp2c19 Compounds with AC50 equal or less than 10 uM are considered active; assay type: functional; settings: read-out: AC50
Sequence of Cytochrome P450 2C19 (P33261 whole entry): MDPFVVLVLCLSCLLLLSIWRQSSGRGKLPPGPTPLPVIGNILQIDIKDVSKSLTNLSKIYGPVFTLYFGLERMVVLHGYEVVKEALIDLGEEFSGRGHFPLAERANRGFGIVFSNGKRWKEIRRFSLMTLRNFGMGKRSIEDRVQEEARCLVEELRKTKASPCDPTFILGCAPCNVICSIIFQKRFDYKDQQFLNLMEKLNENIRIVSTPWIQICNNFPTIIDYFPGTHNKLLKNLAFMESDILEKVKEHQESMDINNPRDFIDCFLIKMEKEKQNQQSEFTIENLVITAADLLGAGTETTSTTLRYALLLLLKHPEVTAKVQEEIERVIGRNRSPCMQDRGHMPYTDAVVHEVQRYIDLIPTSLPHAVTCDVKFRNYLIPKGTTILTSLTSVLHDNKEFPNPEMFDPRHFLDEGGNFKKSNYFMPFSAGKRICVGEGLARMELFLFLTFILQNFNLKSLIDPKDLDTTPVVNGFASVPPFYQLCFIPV

With `CC(C)n1cc(CN2CCCC(C(=O)Nc3cccc(-c4cc5ccccc5[nH]4)c3)C2)cn1` (stereo not drawn) the EC50 [1] was 14.5 µM (active), the EC50 [2] was 30.6 µM (active) and the EC50 [3] was > 120 µM (not active).

With `CN1CCN(/N=C/c2ccc(N(C)c3ccccc3)cc2)CC1` the AC50 [4] was 1.9 µM (active).

With `CCN(CC)c1ccc(/C=N/O)cc1` the IC50 [5] was 20.2 µM (active) and the IC50 [6] was 6.52 µM (active).

With `COc1cc2c(cc1OC)C(c1ccc(Br)cc1)NCC2` (stereo not drawn) the EC50 [1] was > 120 µM (not active), the EC50 [2] was > 120 µM (not active) and the EC50 [3] was > 120 µM (not active). The EC50 [7] was > 60 µM (not active) and the EC50 [8] was > 60 µM (not active).

For `CCS(=O)(=O)c1ccc2oc(Nc3cc(C)cc(C)c3)nc2c1`, the AC50 [9] was 28.2 µM (inconclusive) and the AC50 [10] was 25.1 µM (inconclusive).

For `CC(=O)N1CCC(=NNC(=O)c2cccs2)CC1`, the AC50 [4] was 13.5 µM (active).

For `COc1ccc2nc(S)[nH]c2c1`, the AC50 [4] was 0.581 µM (active).

For `COc1ccc(N2CCC(CN=C(S)Nc3c(C)cc(C)cc3C)C2)cc1` (stereo not drawn), the IC50 [6] was 19.1 µM (active).

For `Sc1nccc(-c2cccs2)n1`, the AC50 [4] was 0.664 µM (active).

With `COC(=O)Cc1csc(N/C=C2/C(=O)N(c3cccc(C(F)(F)F)c3)C(=O)c3ccccc32)n1` the EC50 [1] was > 120 µM (not active), the EC50 [2] was 11.3 µM (active) and the EC50 [3] was > 120 µM (not active).

In the case of `Cc1ccccc1NS(=O)(=O)c1ccc2ncc(C(=O)NCCCN3CCOCC3)c(O)c2c1`, the AC50 [11] is reported as 39.8 µM (inconclusive), the AC50 [10] is reported as 20 µM (inconclusive) and the AC50 [12] is reported as 25.1 µM (inconclusive).

For `c1cc(CN2CCCC3(CCNCC3)C2)ccn1`, the AC50 [10] was 25.1 µM (inconclusive) and the AC50 [12] was 25.1 µM (inconclusive).

In the case of `COC(=O)c1cccc(NC(=O)NC(=O)c2ccccc2Cl)c1`, the EC50 [1] is reported as 2 µM (active), the EC50 [2] is reported as 7.75 µM (active) and the EC50 [3] is reported as 2.84 µM (active).

For `COc1ccc(NC(=O)CNC(=O)Cn2c(C)cc3ccccc3c2=O)c(OC)c1`, the EC50 [1] was > 120 µM (not active), the EC50 [2] was > 120 µM (not active) and the EC50 [3] was > 120 µM (not active).

For `O=C(/C=C/c1ccc(O)c(O)c1)O[C@@H]1C[C@](O)(C(=O)O)C[C@@H](O)[C@H]1O`, the IC50 [6] was 2.86 µM (active).

With `CN1C=CC=C/C1=C(\C#N)c1nc2ccccc2[nH]1` the IC50 [5] was 46.4 µM (active) and the IC50 [6] was 7.7 µM (active).

With `CCN(Cc1ccncc1)C(=O)c1cc(Br)cc(Br)c1O` the AC50 [4] was 1.25 µM (active).

With `CN1Cc2cc(C(=O)c3ccccc3O)cnc2NC1=O` the AC50 [4] was 6.59 µM (active).

In the case of `Nc1ccc2nc(NC(=O)C3CCCCC3)sc2c1`, the AC50 [4] is reported as 0.957 µM (active).

With `CC(NC(=O)C(=O)N1CCCCC1)C(c1cccs1)N1CCN(c2ccc(F)cc2)CC1` (stereo not drawn) the AC50 [4] was 1.44 µM (active).
